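Five concentrations, 48 hours, 96-well plates. GI50 is the concentration that inhibits growth by half.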 Active and inactive are the calls of the source. Rule as the data show it: active = GI50 up to about 1.1 µM and inactive = higher.
Assays:
Assay in all cases: NCI-60 cell line screen, 48 h
A498 = test system: A498
A549 = test system: A549
BT-549 = test system: BT-549
COLO 205 = test system: COLO 205
DU-145 = test system: DU-145
HCC 2998 = test system: HCC 2998
HCT-15 = test system: HCT-15
Hs-578T = test system: Hs-578T
KM12 = test system: KM12
MDA-MB-231 = test system: MDA-MB-231
MOLT-4 = test system: MOLT-4
NCI-H23 = test system: NCI-H23
NCI/ADR-RES = test system: NCI/ADR-RES
OVCAR-8 = test system: OVCAR-8
RPMI-8226 = test system: RPMI-8226
SF-539 = test system: SF-539
SK-MEL-28 = test system: SK-MEL-28
SW-620 = test system: SW-620
UACC-62 = test system: UACC-62
UO-31 = test system: UO-31

`N#C/C(=C\c1ccc([N+](=O)[O-])o1)c1n[nH]c(Cc2ccccc2)n1` was tested, and the GI50 (A498) was 6.32 µM (inactive), the GI50 (A549) was 2.56 µM (inactive) and the GI50 (BT-549) was 2.53 µM (inactive). The GI50 (COLO 205) was 1.23 µM (inactive), the GI50 (DU-145) was 1.57 µM (inactive) and the GI50 (HCC 2998) was 1.63 µM (inactive). For the same compound, the GI50 (HCT-15) was 281 nM, the GI50 (Hs-578T) was 3.98 µM (inactive) and the GI50 (KM12) was 2.19 µM (inactive). For the same compound, the GI50 (MDA-MB-231) was 1.57 µM (inactive), the GI50 (MOLT-4) was 0.406 µM (active) and the GI50 (NCI-H23) was 1.21 µM (inactive). For the same compound, the GI50 (NCI/ADR-RES) was 2.79 µM (inactive), the GI50 (OVCAR-8) was 2.84 µM (inactive) and the GI50 (RPMI-8226) was 0.335 µM (active). The GI50 (SF-539) was 1.32 µM (inactive), the GI50 (SK-MEL-28) was 2.03 µM (inactive) and the GI50 (SW-620) was 0.277 µM (active). The GI50 (UACC-62) was 1.52 µM (inactive) and the GI50 (UO-31) was 2.66 µM (inactive).
`COc1ccc(/N=N\c2c(N)nn3c(SC)c(C#N)c(N)nc23)cc1` was tested, and the GI50 (A498) was 11.1 µM (inactive), the GI50 (A549) was 18 µM (inactive) and the GI50 (BT-549) was 14.9 µM (inactive). The GI50 (COLO 205) was 12.9 µM (inactive), the GI50 (DU-145) was 5.52 µM (inactive) and the GI50 (HCC 2998) was 3.96 µM (inactive). For the same compound, the GI50 (HCT-15) was 8610 nM, the GI50 (Hs-578T) was 2.52 µM (inactive) and the GI50 (KM12) was 15.1 µM (inactive). For the same compound, the GI50 (MDA-MB-231) was 2.32 µM (inactive), the GI50 (MOLT-4) was 2.61 µM (inactive) and the GI50 (NCI-H23) was 5.55 µM (inactive). For the same compound, the GI50 (NCI/ADR-RES) was 23.4 µM (inactive), the GI50 (OVCAR-8) was 5.04 µM (inactive) and the GI50 (RPMI-8226) was 2.92 µM (inactive). The GI50 (SF-539) was 19 µM (inactive), the GI50 (SK-MEL-28) was 6.5 µM (inactive) and the GI50 (SW-620) was 4.6 µM (inactive). For the same compound, the GI50 (UACC-62) was 5.71 µM (inactive) and the GI50 (UO-31) was 12.4 µM (inactive).
For `O=C(Nc1ccc(Cl)cc1)c1cc(S(=O)(=O)Nc2nc3cccnc3[nH]2)c(SSc2cc(Cl)c(C(=O)Nc3ccc(Cl)cc3)cc2S(=O)(=O)Nc2nc3cccnc3[nH]2)cc1Cl`, the GI50 (A498) was > 100 µM (inactive), the GI50 (A549) was > 100 µM (inactive) and the GI50 (BT-549) was > 100 µM (inactive). For the same compound, the GI50 (COLO 205) was > 100 µM (inactive), the GI50 (DU-145) was > 100 µM (inactive) and the GI50 (HCC 2998) was > 100 µM (inactive). For the same compound, the GI50 (HCT-15) was over 100000 nM, the GI50 (Hs-578T) was > 100 µM (inactive) and the GI50 (KM12) was > 100 µM (inactive). The GI50 (MDA-MB-231) was > 100 µM (inactive), the GI50 (MOLT-4) was > 100 µM (inactive) and the GI50 (NCI-H23) was > 100 µM (inactive). The GI50 (NCI/ADR-RES) was > 100 µM (inactive), the GI50 (OVCAR-8) was > 100 µM (inactive) and the GI50 (RPMI-8226) was > 100 µM (inactive). For the same compound, the GI50 (SF-539) was > 100 µM (inactive), the GI50 (SK-MEL-28) was > 100 µM (inactive) and the GI50 (SW-620) was > 100 µM (inactive). For the same compound, the GI50 (UACC-62) was > 100 µM (inactive) and the GI50 (UO-31) was > 100 µM (inactive).
With `CC(=O)O[C@H]1CC[C@@]2(C)C(=CC[C@H]3[C@@H]4C/C(=C\c5ccncc5)[C@H](OC(C)=O)[C@@]4(C)CC[C@@H]32)C1` the GI50 (A498) was 12.9 µM (inactive), the GI50 (A549) was 6.08 µM (inactive) and the GI50 (BT-549) was 3.28 µM (inactive). The GI50 (COLO 205) was 4.08 µM (inactive), the GI50 (DU-145) was 15.4 µM (inactive) and the GI50 (HCC 2998) was 13.1 µM (inactive). The GI50 (HCT-15) was 3450 nM, the GI50 (Hs-578T) was 6.97 µM (inactive) and the GI50 (KM12) was 4.57 µM (inactive). The GI50 (MDA-MB-231) was 19.1 µM (inactive), the GI50 (MOLT-4) was 3.04 µM (inactive) and the GI50 (NCI-H23) was 4.56 µM (inactive). For the same compound, the GI50 (NCI/ADR-RES) was 4.34 µM (inactive), the GI50 (OVCAR-8) was 11.8 µM (inactive) and the GI50 (RPMI-8226) was 2.46 µM (inactive). For the same compound, the GI50 (SF-539) was 3.95 µM (inactive), the GI50 (SK-MEL-28) was 5.74 µM (inactive) and the GI50 (SW-620) was 4.14 µM (inactive). The GI50 (UACC-62) was 13.2 µM (inactive) and the GI50 (UO-31) was 8.04 µM (inactive).
In the case of `Nc1cc2c(c3ccccc13)C(CCl)CN2C(=O)c1cc2cc(NC(=O)Nc3ccc4[nH]c(C(=O)N5CC(CCl)c6c5cc(N)c5ccccc65)cc4c3)ccc2[nH]1` (stereo not given), the GI50 (A498) was 0.197 µM (active), the GI50 (A549) was 0.0478 µM (active) and the GI50 (BT-549) was 0.776 µM (active). For the same compound, the GI50 (COLO 205) was 0.687 µM (active), the GI50 (DU-145) was < 0.01 µM (active) and the GI50 (HCC 2998) was 0.259 µM (active). The GI50 (HCT-15) was 1960 nM, the GI50 (Hs-578T) was 1.35 µM (inactive) and the GI50 (KM12) was 1.08 µM (active). For the same compound, the GI50 (MDA-MB-231) was 0.27 µM (active), the GI50 (MOLT-4) was < 0.01 µM (active) and the GI50 (NCI-H23) was 0.0239 µM (active). The GI50 (NCI/ADR-RES) was 1.31 µM (inactive), the GI50 (OVCAR-8) was 0.0678 µM (active) and the GI50 (RPMI-8226) was 1.4 µM (inactive). For the same compound, the GI50 (SF-539) was 0.0194 µM (active), the GI50 (SK-MEL-28) was 0.659 µM (active) and the GI50 (SW-620) was 0.075 µM (active). The GI50 (UACC-62) was 0.0634 µM (active) and the GI50 (UO-31) was 0.0559 µM (active).
With `Cc1cc(=O)[nH]c2c1C(=O)c1c(C)cc(=O)n(C)c1C2=O` the GI50 (A498) was 0.214 µM (active), the GI50 (A549) was 0.188 µM (active) and the GI50 (BT-549) was 0.0228 µM (active). For the same compound, the GI50 (COLO 205) was 0.0162 µM (active), the GI50 (DU-145) was 0.0238 µM (active) and the GI50 (HCC 2998) was 0.0261 µM (active). For the same compound, the GI50 (HCT-15) was 123 nM, the GI50 (Hs-578T) was 0.0262 µM (active) and the GI50 (KM12) was 0.0678 µM (active). The GI50 (MDA-MB-231) was 0.303 µM (active), the GI50 (MOLT-4) was 0.212 µM (active) and the GI50 (NCI-H23) was 0.0142 µM (active). For the same compound, the GI50 (NCI/ADR-RES) was 0.0889 µM (active), the GI50 (OVCAR-8) was 0.0832 µM (active) and the GI50 (RPMI-8226) was 0.33 µM (active). The GI50 (SF-539) was 0.0208 µM (active), the GI50 (SK-MEL-28) was 0.0191 µM (active) and the GI50 (SW-620) was 0.0419 µM (active). The GI50 (UACC-62) was 0.0171 µM (active) and the GI50 (UO-31) was 0.167 µM (active).
In the case of `O=C(OCC1CCCN2CCCCC12)c1cccnc1` (stereo not given), the GI50 (A498) was > 100 µM (inactive), the GI50 (A549) was > 100 µM (inactive) and the GI50 (BT-549) was > 100 µM (inactive). For the same compound, the GI50 (COLO 205) was > 100 µM (inactive), the GI50 (DU-145) was > 100 µM (inactive) and the GI50 (HCC 2998) was > 100 µM (inactive). For the same compound, the GI50 (HCT-15) was over 100000 nM, the GI50 (Hs-578T) was > 100 µM (inactive) and the GI50 (KM12) was > 100 µM (inactive). For the same compound, the GI50 (MDA-MB-231) was > 100 µM (inactive), the GI50 (MOLT-4) was > 100 µM (inactive) and the GI50 (NCI-H23) was > 100 µM (inactive). The GI50 (NCI/ADR-RES) was > 100 µM (inactive), the GI50 (OVCAR-8) was > 100 µM (inactive) and the GI50 (RPMI-8226) was > 100 µM (inactive). For the same compound, the GI50 (SF-539) was > 100 µM (inactive), the GI50 (SK-MEL-28) was > 100 µM (inactive) and the GI50 (SW-620) was > 100 µM (inactive). The GI50 (UACC-62) was > 100 µM (inactive) and the GI50 (UO-31) was > 100 µM (inactive).

Reference: ChEMBL document CHEMBL1201862, “PubChem BioAssay data set” (2004)
